The record followed here is patent publication US20240246968A1, “SMALL MOLECULE INHIBITORS OF KRAS G12C MUTANT” (Merck Sharp & Dohme LLC, priority 2021, published 2024).

Usually IC50 stands for the concentration at which inhibition is half-maximal.

Assay [1] addresses Gppcp-bound recombinant K-Ras4B G12C mutant protein (amino acids 1-169, C51S/C80L/C118S) (Homo sapiens, UniProt P01116, C118S/C51S/C80L/G12C). The experiment in a line: KRASG12C binding assay (LC-MS, compound binding rate). Conditions: test compound final concentration 0.5 μM, 25° C., 1 hour. The method in brief: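 Gppcp-bound K-Ras4B G12C (1-169; C51S/C80L/C118S), 50 nM in TBS with 0.1 mM TCEP, 0.25 mM MgCl2, 50 μM Gppcp, exposed to compound at 0.5 μM final for 1 h at 25 °C. Quenched with formic acid and analysed by intact-protein ESI LC-MS. Binding rate is the mono-adduct signal over total KRAS signal; graded A (≥80%) to E (<20%).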

The target of assay [2] is T1, interaction between recombinant K-Ras4B G12C mutant protein and cRAF RAS-binding domain (cRAF-RBD) (Homo sapiens, UniProt P01116, G12C).
T1 construct: made in house; host or cells: E. coli
The experiment in a line: Inhibitory activity on interaction between KRAS G12C and cRAF (Alpha technology). Conditions: GMPPNP-bound KRAS G12C incubated with compound at 25° C. for 1 hour, then cRAF-RBD; Alpha signal. In kind it is biochemical. The method, boiled down:
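GMPPNP-loaded His-tagged KRAS G12C (aa 1-169, E. coli) preincubated with compound 1 h at 25° C in Tris pH 7.5, 100 mM NaCl, 1 mM MgCl2, TCEP, 0.1% Tween 20; cRAF-RBD (aa 50-132) added, 1.5 h RT, Alpha signal read. DMSO = 0%, GDP-bound KRAS = 100% inhibition; IC50 from dose titration fit.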

The test system of assay [3] is MIA PaCa-2 cells. The experiment in a line: Growth inhibition activity on KRAS-G12C mutant cell line (MIA PaCa-2), CellTiter-Glo 3D. Format: cell-based, human. Conditions: MIA PaCa-2, 3-day culture with compound. The method, boiled down: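 Cells in RPMI1640 with 10% FBS were seeded in U-bottom plates and cultured 1 day at 37 °C, 5% CO2, then exposed to compound (0.2% DMSO final) for 3 more days. Viability read by CellTiter-Glo 3D luminescence; IC50 from growth inhibition relative to untreated wells.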

With `COc1cc2c(nc(C)n2C)c(F)c1-c1cccn2c(C(=O)c3cc(F)c(NC(=O)/C=C/CNC(C)(C)C)c(F)c3)ccc12` [Example 46, (E)-4-(tert-butylamino)-N-(2,6-difluoro-4-(8-(4-fluoro-6-methoxy-1,2-dimethyl-1H-benzo[d]imidazol-5-yl)indolizine-3-carbonyl)phenyl)but-2-enamide], the binding rate result in assay [1] was “A (A binding rate of 80% or more is rated “A”)”. The IC50 in assay [2] turned out to be 30 nM; in assay [3] (Homo sapiens, MIA PaCa-2, 72 h) it was 24 nM.
For `Cc1nc2cc(-c3cccn4c(C(=O)c5cc(F)c(NC(=O)/C=C/CN[C@H]6CC[C@H](O)CC6)c(F)c5)ccc34)c(C(F)(F)F)cc2n1C` [Example 55], in assay [1], the binding rate entry is listed as “A (A binding rate of 80% or more is rated “A”)”. For the same molecule, the IC50 in assay [2] is 41 nM; in assay [3] (Homo sapiens, MIA PaCa-2, 72 h), 88 nM.
As to `Cc1nc2c(Cl)c(-c3cccn4c(C(=O)c5cc(F)c(NC(=O)/C=C/CNC(C)(C)C)c(F)c5)ccc34)c(C(F)(F)F)cc2n1C` (single isomer, unassigned) [Example 56-2, (E)-4-(tert-butylamino)-N-(4-(8-(4-chloro-1,2-dimethyl-6-(trifluoromethyl)-1H-benzo[d]imidazol-5-yl)indolizine-3-carbonyl)-2,6-difluorophenyl)but-2-enamide], the binding rate result in assay [1] was “A (A binding rate of 80% or more is rated “A”)”. Also, the IC50 in assay [2] was 21 nM; in assay [3], 29 nM.
In the case of `CO[C@H]1CC[C@H](NC/C=C/C(=O)Nc2c(F)cc(C(=O)c3ccc4c(-c5c(C)cc6c(nc(C)n6C)c5Cl)cccn34)cc2F)CC1` (single isomer, unassigned) [Example 19-1, (E)-N-(4-(8-(4-chloro-1,2,6-trimethyl-1H-benzo[d]imidazol-5-yl)indolizine-3-carbonyl)-2,6-difluorophenyl)-4-(((1r,4r)-4-methoxycyclohexyl)amino)but-2-enamide], the binding rate entry in assay [1] is “A (A binding rate of 80% or more is rated “A”)”. Further, the IC50 in assay [2] came out at 20 nM; in assay [3] it was 47 nM.
Consider `COCc1nc2c(Cl)c(-c3cccn4c(C(=O)c5cc(F)c(NC(=O)/C=C/CNC(C)(C)C)c(F)c5)ccc34)c(C)cc2n1C` [Example 86, (E)-4-(tert-butylamino)-N-(4-(8-(4-chloro-2-(methoxymethyl)-1,6-dimethyl-1H-benzo[d]imidazol-5-yl)indolizine-3-carbonyl)-2,6-difluorophenyl)but-2-enamide], for which the binding rate result in assay [1] is “A (A binding rate of 80% or more is rated “A”)”. In addition, the IC50 is 40 nM in assay [2] and 81 nM in assay [3] (Homo sapiens, MIA PaCa-2, 72 h).
On the same counts, the results for `Cc1nc2cc(-c3cccn4c(C(=O)c5cc(F)c(NC(=O)/C=C/CN[C@@H]6CCC[C@H](F)C6)c(F)c5)ccc34)c(C(F)(F)F)cc2n1C` (racemic) [Example 94, (E)-N-(4-(8-(1,2-dimethyl-6-(trifluoromethyl)-1H-benzo[d]imidazol-5-yl)indolizine-3-carbonyl)-2,6-difluorophenyl)-4-(((1R,3S)-3-fluorocyclohexyl)amino)but-2-enamide and (E)-N-(4-(8-(1,2-dimethyl-6-(trifluoromethyl)-1H-benzo[d]imidazol-5-yl)indolizine-3-carbonyl)-2,6-difluorophenyl-4-(((1S,3R)-3-fluorocyclohexyl)amino)but-2-enamide] are “A (A binding rate of 80% or more is rated “A”)”, 83 nM and 280 nM.
`CO[C@H](C)c1nc2c(Cl)c(-c3cccn4c(C(=O)c5cc(F)c(NC(=O)/C=C/CNC(C)(C)C)c(F)c5)ccc34)c(C)cc2n1C` (single isomer, unassigned) [Example 49]: the binding rate result in assay [1] is listed as “A (A binding rate of 80% or more is rated “A”)”. Further, the results for the IC50 in assay [2] and in assay [3] were 19 nM and 49 nM, respectively.
For `COc1cc2c(cc1-c1cccn3c(C(=O)c4cc(F)c(NC(=O)/C=C/CN[C@H]5CC[C@H](OC)CC5)c(F)c4)ccc13)nc(C)n2C` [Example 4, (E)-N-(2,6-difluoro-4-(8-(6-methoxy-1,2-dimethyl-1H-benzo[d]imidazol-5-yl)indolizine-3-carbonyl)phenyl)-4-(((1r,4r)-4-methoxycyclohexyl)amino)but-2-enamide], the binding rate result in assay [1] is “A (A binding rate of 80% or more is rated “A”)”. Further, the IC50 stood at 74 nM in assay [2] and 42 nM in assay [3] (Homo sapiens, MIA PaCa-2, 72 h).
Consider `COc1nc2c(cc1-c1cccn3c(C(=O)c4cc(F)c(NC(=O)/C=C/CN[C@H]5CC[C@H](OC)CC5)c(F)c4)ccc13)nc(C)n2C` [Example 33, (E)-N-(2,6-difluoro-4-(8-(5-methoxy-2,3-dimethyl-3H-imidazo[4,5-b]pyridin-6-yl)indolizine-3-carbonyl)phenyl)-4-(((1r,4r)-4-methoxycyclohexyl)amino)but-2-enamide], for which the binding rate entry in assay [1] is given as “A (A binding rate of 80% or more is rated “A”)”. For the same molecule, the IC50 is 75 nM in assay [2] and 140 nM in assay [3] (Homo sapiens, MIA PaCa-2, 72 h).
In the case of `CO[C@H](C)c1nc2c(Cl)c(-c3cccn4c(C(=O)c5cc(F)c(NC(=O)/C=C/CNC(C)(C)C)c(F)c5)ccc34)c(C)cc2n1C` (single isomer, unassigned) [Example 50], the binding rate result in assay [1] is reported as “A (A binding rate of 80% or more is rated “A”)”. Besides, the values for the IC50 in assay [2] and in assay [3] were 250 nM and 220 nM, respectively.
In the case of `CO[C@H]1CC[C@H](NC/C=C/C(=O)Nc2c(F)cc(C(=O)c3ccc4c(-c5c(C6CC6)cc6c(nc(C)n6C)c5Cl)cccn34)cc2F)CC1` [Example 38], the binding rate entry in assay [1] is recorded as “A (A binding rate of 80% or more is rated “A”)”. Besides, the half-inhibitory concentration (IC50) in assay [2] came to 77 nM; in assay [3] (Homo sapiens, MIA PaCa-2, 72 h), 78 nM.
On the same counts, the results for `Cc1nc2cc(-c3cccn4c(C(=O)c5cc(F)c(NC(=O)/C=C/CNC67CCC(F)(CC6)CC7)c(F)c5)ccc34)c(C(F)(F)F)cc2n1C` [Example 85, (E)-N-(4-(8-(1,2-dimethyl-6-(trifluoromethyl)-1H-benzo[d]imidazol-5-yl)indolizine-3-carbonyl)-2,6-difluorophenyl)-4-((4-fluorobicyclo[2.2.2]octan-1-yl)amino)but-2-enamide] are “A (A binding rate of 80% or more is rated “A”)”, 45 nM and 110 nM.
For the molecule `Cc1nc2cc(-c3cccn4c(C(=O)c5cc(F)c(NC(=O)/C=C/CNC6CCCOC6)c(F)c5)ccc34)c(C(F)(F)F)cc2n1C` (stereo not drawn) [Example 78, (E)-N-(4-(8-(1,2-dimethyl-6-(trifluoromethyl)-1H-benzo[d]imidazol-5-yl)indolizine-3-carbonyl)-2,6-difluorophenyl)-4-((tetrahydro-2H-pyran-3-yl)amino)but-2-enamide], in assay [1], the binding rate entry is “A (A binding rate of 80% or more is rated “A”)”. The IC50 in assay [2] turned out to be 51 nM; in assay [3] (Homo sapiens, MIA PaCa-2, 72 h), 120 nM.
Consider `CO[C@H]1CC[C@H](NC/C=C/C(=O)Nc2c(F)cc(C(=O)c3ccc4c(-c5c(C(F)(F)F)cc6c(nc(C)n6C)c5Cl)cccn34)cc2F)CC1` (single isomer, unassigned) [Example 32-1, (E)-N-(4-(8-(4-chloro-1,2-dimethyl-6-(trifluoromethyl)-1H-benzo[d]imidazol-5-yl)indolizine-3-carbonyl)-2,6-difluorophenyl)-4-(((1r,4r)-4-methoxycyclohexyl)amino)but-2-enamide], for which the binding rate entry in assay [1] was “A (A binding rate of 80% or more is rated “A”)”. Further, the values for the IC50 in assay [2] and in assay [3] were 21 nM and 14 nM, respectively.
On the same counts, the results for `COc1c(-c2cccn3c(C(=O)c4cc(F)c(NC(=O)/C=C/CNC(C)(C)C)c(F)c4)ccc23)c(C)cc2c1nc(C)n2C` (single isomer, unassigned) [Example 40-1] are “A (A binding rate of 80% or more is rated “A”)”, 340 nM and 340 nM.
On the same counts, the results for `COc1c(-c2cccn3c(C(=O)c4cc(F)c(NC(=O)/C=C/CN[C@H]5CC[C@H](OC)CC5)c(F)c4)ccc23)c(C(F)(F)F)cc2c1nc(C)n2C` (single isomer, unassigned) [Example 60-2, (E)-N-(2,6-difluoro-4-(8-(4-methoxy-1,2-dimethyl-6-(trifluoromethyl)-1H-benzo[d]imidazol-5-yl)indolizine-3-carbonyl)phenyl)-4-(((1r,4r)-4-methoxycyclohexyl)amino)but-2-enamide] are “A (A binding rate of 80% or more is rated “A”)”, 26 nM and 15 nM.
On the same counts, the results for `CO[C@H]1CC[C@H](NC/C=C/C(=O)Nc2c(F)cc(C(=O)c3ccc4c(-c5c(C(F)(F)F)cc6c(ncn6C)c5Cl)cccn34)cc2F)CC1` (single isomer, unassigned) [Example 28-2, (E)-N-(4-(8-(4-chloro-1-methyl-6-(trifluoromethyl)-1H-benzo[d]imidazol-5-yl)indolizine-3-carbonyl)-2,6-difluorophenyl)-4-(((1r,4r)-4-methoxycyclohexyl)amino)but-2-enamide] are “A (A binding rate of 80% or more is rated “A”)”, 800 nM and 940 nM.
